How the values were obtained:
[1] = Critical micellar concentration by Nile red fluorescence; assay type: physicochemical
Description: We characterized the critical micellar concentration (CMC) of the polymers to evaluate their ability to self-assemble into polymolecular structures.
Nile red can be used to measure the CMC of surfactants and polymolecular architectures by following the fluorescence of the dye: the critical micelle concentration coincides with a strong increase in the intensity of the fluorescence (λex/em: 549/628 nm). Serial dilutions of polymers were made in the range of 2.5 to 7×10^−4 mg/mL. 200 μL of each sample were used with 10 μL of Nile Red solution in methanol (1×10^−5 M). Fluorescence was read in a 96-well plate (λex/em: 549/628 nm).

[2] = mouse, in vivo, iv
Description: The impact of CTA-PGMA-DODA and PMGA-DODA on the circulation profile of radiolabeled [^14C]-liposomes was studied in healthy Balb/c mice. In this study, the concentrations of radiolabeled liposomes in the blood were monitored for 6 hours after intravenous injection.
Healthy animals were housed in a controlled environment (22° C., 12 hours day/night cycle) with ad libitum access to food and water. A total of 11 healthy male mice were divided in three groups (3-3-5). As a blank, liposomes without polymer on the surface were injected intravenously by the subclavian vein at a concentration of 2 mg/kg of phospholipids. Approximately 30-50 μL of blood was collected at various times (0.25, 0.5, 1, 2, 4, 6 Hours). Six hours post-injection, blood was collected by cardiac puncture for a terminal timepoint. Animals were euthanized by a cardiac perfusion with 3 mL of isotonic phosphate-buffered saline solution pH=7.2 (potassium phosphate 1.1 mmol/L, NaCl 150 mmol/L, disodium phosphate 3 mmol/L) and organs were collected. Biological samples were digested at 58° C. (in Solvable®, Perkin Elmer®), bleached with 30% hydrogen peroxide, and assessed by scintillation counting, using Hionic Fluor® (Perkin Elmer®) as a scintillation cocktail.

Compound	CMC [1] [mg/mL]	AUC0-6 h of the control liposomes relative to the liposome formulation prepared with the named polymer [2] [fold]	effect on circulation time of liposomes [2]
CCCCCCCCCCCCOS(=O)(=O)[O-].[Na+] [SDS, sodium dodecyl sulfate]	2	–	–
DODA-Terminated Poly(Monoglycerol Acrylate) [PMGA-DODA6.5k]	–	1.2	do not seem to prolong the circulation time
